What was measured:
[1] = tested on: HCT-116; assay: Antiproliferative MTT assay, HCT-116; format: cell-based; conditions: Homo sapiens, HCT-116, read-out: Antiproliferative activity IC50 ± SEM, HCT-116
[2] = tested on: MCF-7; assay: Antiproliferative MTT assay, MCF-7; format: cell-based, human; conditions: for IC50: Homo sapiens, MCF7, read-out: Antiproliferative activity IC50 ± SEM, MCF-7
[3] = tested on: PC-3; assay: Antiproliferative MTT assay, PC-3; format: cell-based; conditions: Homo sapiens, PC-3, read-out: Antiproliferative activity IC50 ± SEM, PC-3
[4] = tested on: MDAMB-231; assay: Antiproliferative MTT assay, MDAMB-231; format: cell-based, human
[5] = tested on: four human cancer cell lines (HCT-116, PC-3, MCF-7, MDAMB-231); assay: Antiproliferative MTT assay, average over four cancer cell lines; format: cell-based; conditions: for GI50: average IC50 of the four cancer cell lines; for fold less potent than compound 4n (GI50): ratio of GI50 values
[6] = biological target: EGFR-TK (Homo sapiens, UniProt P00533); assay: EGFR inhibitory assay; format: biochemical
[7] = biological target: HER2-TK (Homo sapiens, UniProt P04626); assay: HER2 inhibitory assay; format: biochemical; conditions: HER2 IC50 ± SEM, Table 3
HER2-TK, sequence (P04626 676-1255 limits assumed): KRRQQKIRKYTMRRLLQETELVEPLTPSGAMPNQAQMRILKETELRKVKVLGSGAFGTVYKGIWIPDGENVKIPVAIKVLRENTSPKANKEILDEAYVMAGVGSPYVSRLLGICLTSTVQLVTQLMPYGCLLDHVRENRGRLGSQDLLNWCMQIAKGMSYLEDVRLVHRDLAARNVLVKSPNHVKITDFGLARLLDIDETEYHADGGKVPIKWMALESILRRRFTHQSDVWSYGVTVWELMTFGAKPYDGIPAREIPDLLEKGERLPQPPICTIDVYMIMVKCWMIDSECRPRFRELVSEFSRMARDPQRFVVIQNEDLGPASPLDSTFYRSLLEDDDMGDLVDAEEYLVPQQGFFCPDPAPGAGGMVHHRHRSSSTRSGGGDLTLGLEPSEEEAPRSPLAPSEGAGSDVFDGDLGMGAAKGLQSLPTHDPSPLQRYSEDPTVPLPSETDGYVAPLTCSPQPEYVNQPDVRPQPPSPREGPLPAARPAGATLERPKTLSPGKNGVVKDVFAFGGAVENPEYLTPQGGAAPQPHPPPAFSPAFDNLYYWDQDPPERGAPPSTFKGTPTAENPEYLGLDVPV

EGFR-TK, sequence (P00533 669-1210): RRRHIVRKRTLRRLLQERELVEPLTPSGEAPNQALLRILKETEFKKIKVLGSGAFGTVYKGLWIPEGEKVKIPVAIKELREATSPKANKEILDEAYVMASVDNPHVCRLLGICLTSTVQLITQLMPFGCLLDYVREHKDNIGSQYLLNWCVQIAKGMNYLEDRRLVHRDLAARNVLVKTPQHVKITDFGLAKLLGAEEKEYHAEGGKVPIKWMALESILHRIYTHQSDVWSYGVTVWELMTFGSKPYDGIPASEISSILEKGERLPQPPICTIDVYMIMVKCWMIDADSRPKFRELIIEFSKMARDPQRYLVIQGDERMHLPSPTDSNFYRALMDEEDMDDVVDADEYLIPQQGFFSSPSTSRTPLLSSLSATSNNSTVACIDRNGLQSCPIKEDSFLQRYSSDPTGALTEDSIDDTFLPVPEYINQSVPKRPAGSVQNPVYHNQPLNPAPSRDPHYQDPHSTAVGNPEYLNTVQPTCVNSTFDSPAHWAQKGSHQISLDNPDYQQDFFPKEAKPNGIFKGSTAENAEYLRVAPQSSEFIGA

Row | SMILES | IC50 [1] [µM] | IC50 [2] [µM] | IC50 [3] [µM] | GI50 ([5]; Homo sapiens) [µM] | further results
1 | COc1ccc(N2CCN(CC(=O)Nc3ccc(C(=O)C=Cc4ccccc4)cc3)CC2)cc1 [4a, N-(4-Cinnamoylphenyl)-2-(4-(4-methoxyphenyl)piperazin-1-yl)acetamide] | 68.6 ± 3.7 | 72.4 ± 3.7 | 78.2 ± 4 | – | –
2 | COc1ccc(N2CCN(CC(=O)Nc3ccc(C(=O)C=Cc4ccc(C)cc4)cc3)CC2)cc1 [4b, 2-(4-(4-Methoxyphenyl)piperazin-1-yl)-N-(4-(3-(p-tolyl)acryloyl)phenyl)acetamide] | 79.6 ± 3.8 | 65.5 ± 3.5 | 32 ± 2.1 | – | –
3 | COc1ccc(C=CC(=O)c2ccc(NC(=O)CN3CCN(c4ccc(OC)cc4)CC3)cc2)cc1 [4c, N-(4-(3-(4-Methoxyphenyl)acryloyl)phenyl)-2-(4-(4-methoxyphenyl)piperazin-1-yl)acetamide] | 18.1 ± 1.4 | 28.3 ± 1.8 | 34.5 ± 2.1 | – | –
4 | COc1ccc(N2CCN(CC(=O)Nc3ccc(C(=O)C=Cc4cc(OC)c(OC)c(OC)c4)cc3)CC2)cc1 [4d, 2-(4-(4-Methoxyphenyl)piperazin-1-yl)-N-(4-(3-(3,4,5-trimethoxyphenyl)acryloyl)phenyl)acetamide] | 29.1 ± 1.9 | 24.2 ± 1.7 | 61.4 ± 3.5 | – | –
5 | COc1ccc(N2CCN(CC(=O)Nc3ccc(C(=O)C=Cc4ccc(Br)cc4)cc3)CC2)cc1 [4e, N-(4-(3-(4-Bromophenyl)acryloyl)phenyl)-2-(4-(4-methoxyphenyl)piperazin-1-yl)acetamide] | 64.8 ± 3.5 | 52.5 ± 2.9 | 73.9 ± 3.8 | – | –
6 | COc1ccc(N2CCN(CC(=O)Nc3ccc(C(=O)C=Cc4ccc(Cl)cc4Cl)cc3)CC2)cc1 [4f, N-(4-(3-(2,4-Dichlorophenyl)acryloyl)phenyl)-2-(4-(4-methoxyphenyl)piperazin-1-yl)acetamide] | > 100 | > 100 | > 100 | – | –
7 | COc1ccc(N2CCN(CC(=O)Nc3ccc(C(=O)C=Cc4ccco4)cc3)CC2)cc1 [4g, N-(4-(3-(Furan-2-yl)acryloyl)phenyl)-2-(4-(4-methoxyphenyl)piperazin-1-yl)acetamide] | 17.3 ± 1.4 | 9.37 ± 0.7 | 14.2 ± 1.2 | 12 | fold less potent than 4n, MCF-7 [2]: 2 fold; fold less potent than 4n, MDAMB-231 [4]: 2 fold; fold less potent than compound 4n (GI50) [5]: 1.7
8 | O=C(CN1CCN(c2ccc(Cl)cc2)CC1)Nc1ccc(C(=O)C=Cc2ccccc2)cc1 [4h, 2-(4-(4-Chlorophenyl)piperazin-1-yl)-N-(4-cinnamoylphenyl)acetamide] | 49.6 ± 2.8 | 41.3 ± 2.4 | 20.4 ± 1.5 | – | –
9 | Cc1ccc(C=CC(=O)c2ccc(NC(=O)CN3CCN(c4ccc(Cl)cc4)CC3)cc2)cc1 [4i, 2-(4-(4-Chlorophenyl)piperazin-1-yl)-N-(4-(3-(p-tolyl)acryloyl)phenyl)acetamide] | 86.1 ± 4.3 | 91.6 ± 4.6 | > 100 | 90 | fold less potent than compound 4n (GI50) [5]: 13
10 | COc1ccc(C=CC(=O)c2ccc(NC(=O)CN3CCN(c4ccc(Cl)cc4)CC3)cc2)cc1 [4j, 2-(4-(4-Chlorophenyl)piperazin-1-yl)-N-(4-(3-(4-methoxyphenyl)acryloyl)phenyl)acetamide] | 27.4 ± 1.9 | 42.9 ± 2.5 | 66.8 ± 3.5 | – | –
11 | COc1cc(C=CC(=O)c2ccc(NC(=O)CN3CCN(c4ccc(Cl)cc4)CC3)cc2)cc(OC)c1OC [4k, 2-(4-(4-Chlorophenyl)piperazin-1-yl)-N-(4-(3-(3,4,5-trimethoxyphenyl)acryloyl)phenyl)acetamide] | 34.8 ± 2.2 | 17.9 ± 1.4 | 42.9 ± 2.5 | – | –
12 | O=C(CN1CCN(c2ccc(Cl)cc2)CC1)Nc1ccc(C(=O)C=Cc2ccc(Br)cc2)cc1 [4l, N-(4-(3-(4-Bromophenyl)acryloyl)phenyl)-2-(4-(4-chlorophenyl)piperazin-1-yl)acetamide] | 75.4 ± 4.1 | 80.8 ± 3.9 | 86.4 ± 4.3 | 76 | fold less potent than compound 4n (GI50) [5]: 11
13 | O=C(CN1CCN(c2ccc(Cl)cc2)CC1)Nc1ccc(C(=O)C=Cc2ccc(Cl)cc2Cl)cc1 [4m, 2-(4-(4-Chlorophenyl)piperazin-1-yl)-N-(4-(3-(2,4dichlorophenyl)acryloyl)phenyl)acetamide] | 44.8 ± 2.6 | 35.8 ± 2.2 | 55.2 ± 3.2 | – | –
14 | COc1ccc(N2CCN(CC(=O)Nc3ccc(C4=NN(C(C)=O)C(c5ccccc5)C4)cc3)CC2)cc1 (stereo not shown) [5a, N-(4-(1-Acetyl-5-phenyl-4,5-dihydro-1H-pyrazol-3-yl)phenyl)-2-(4-(4-methoxyphenyl)piperazin-1-yl)acetamide] | 32.1 ± 2.1 | 19.6 ± 1.4 | 46.3 ± 2.5 | – | –

More lines, main results first:

Row | IC50 [1] [µM] | IC50 [2] [µM] | IC50 [3] [µM] | GI50 ([5]; Homo sapiens) [µM] | SMILES | further results
15 | 24.9 ± 1.8 | 13.8 ± 1.1 | 21.9 ± 1.6 | 18 | COc1ccc(N2CCN(CC(=O)Nc3ccc(C4=NN(C(C)=O)C(c5ccc(C)cc5)C4)cc3)CC2)cc1 (stereo not shown) [5b, N-(4-(1-Acetyl-5-(p-tolyl)-4,5-dihydro-1H-pyrazol-3-yl)phenyl)-2-(4-(4-methoxy-phenyl)piperazin-1-yl)acetamide] | –
16 | 18.6 ± 1.5 | 9.68 ± 0.8 | 16.2 ± 1.3 | 13 | COc1ccc(C2CC(c3ccc(NC(=O)CN4CCN(c5ccc(OC)cc5)CC4)cc3)=NN2C(C)=O)cc1 (stereo not shown) [5c, N-(4-(1-Acetyl-5-(4-methoxyphenyl)-4,5-dihydro-1H-pyrazol-3-yl)phenyl)-2-(4-(4-methoxyphenyl)piperazin-1-yl)acetamide] | –
17 | 26.8 ± 2 | 15.2 ± 1.3 | 29.6 ± 1.9 | – | COc1ccc(N2CCN(CC(=O)Nc3ccc(C4=NN(C(C)=O)C(c5ccc(Br)cc5)C4)cc3)CC2)cc1 (stereo not shown) [5e, N-(4-(1-Acetyl-5-(4-bromophenyl)-4,5-dihydro-1H-pyrazol-3-yl)phenyl)-2-(4-(4-methoxyphenyl)piperazin-1-yl)acetamide] | –
18 | 54 ± 3.2 | 47.5 ± 2.6 | 57.8 ± 3.3 | – | COc1ccc(N2CCN(CC(=O)Nc3ccc(C4=NN(C(C)=O)C(c5ccc(Cl)cc5Cl)C4)cc3)CC2)cc1 (stereo not shown) [5f, N-(4-(1-Acetyl-5-(2,4-dichlorophenyl)-4,5-dihydro-1H-pyrazol-3-yl)phenyl)-2-(4-(4-methoxyphenyl)piperazin-1-yl)acetamide] | –
19 | 8.06 ± 0.7 | 3.78 ± 0.2 | 7.48 ± 0.6 | 6 | COc1ccc(N2CCN(CC(=O)Nc3ccc(C4=NN(C(C)=O)C(c5ccco5)C4)cc3)CC2)cc1 (stereo not shown) [5g, N-(4-(1-Acetyl-5-(furan-2-yl)-4,5-dihydro-1H-pyrazol-3-yl)phenyl)-2-(4-(4-methoxy-phenyl)piperazin-1-yl)acetamide] | times less effective as EGFR inhibitors than erlotinib [6]: at least 10 times; IC50 ([6]; EGFR IC50 ± SEM): 2.38 µM; IC50 [7]: 1.54 µM
20 | 74.9 ± 4.1 | 85.4 ± 4.6 | 87.6 ± 4.3 | – | CC(=O)N1N=C(c2ccc(NC(=O)CN3CCN(c4ccc(Cl)cc4)CC3)cc2)CC1c1ccccc1 (stereo not shown) [5h, N-(4-(1-Acetyl-5-phenyl-4,5-dihydro-1H-pyrazol-3-yl)phenyl)-2-(4-(4-chloro-phenyl)piperazin-1-yl)acetamide] | –
21 | 62.5 ± 3.4 | 54.7 ± 3.1 | 67.8 ± 3.6 | – | CC(=O)N1N=C(c2ccc(NC(=O)CN3CCN(c4ccc(Cl)cc4)CC3)cc2)CC1c1ccc(C)cc1 (stereo not shown) [5i, N-(4-(1-Acetyl-5-(p-tolyl)-4,5-dihydro-1H-pyrazol-3-yl)phenyl)-2-(4-(4-chloro-phenyl)piperazin-1-yl)acetamide] | –
22 | > 100 | 94 ± 4.9 | > 100 | 100 | COc1ccc(C2CC(c3ccc(NC(=O)CN4CCN(c5ccc(Cl)cc5)CC4)cc3)=NN2C(C)=O)cc1 (stereo not shown) [5j, N-(4-(1-Acetyl-5-(4-methoxyphenyl)-4,5-dihydro-1H-pyrazol-3-yl)phenyl)-2-(4-(4-chlorophenyl)piperazin-1-yl)acetamide] | –
23 | 52.8 ± 3 | 40.8 ± 2.4 | 45.7 ± 2.6 | – | COc1cc(C2CC(c3ccc(NC(=O)CN4CCN(c5ccc(Cl)cc5)CC4)cc3)=NN2C(C)=O)cc(OC)c1OC (stereo not shown) [5k, N-(4-(1-Acetyl-5-(3,4,5-trimethoxyphenyl)-4,5-dihydro-1H-pyrazol-3-yl)phenyl)-2-(4-(4-chlorophenyl)piperazin-1-yl)acetamide] | –
24 | 69.9 ± 3.7 | 71.3 ± 3.6 | 76.7 ± 3.9 | – | CC(=O)N1N=C(c2ccc(NC(=O)CN3CCN(c4ccc(Cl)cc4)CC3)cc2)CC1c1ccc(Cl)cc1Cl (stereo not shown) [5m, N-(4-(1-Acetyl-5-(2,4-dichlorophenyl)-4,5-dihydro-1H-pyrazol-3-yl)phenyl)-2-(4-(4-chlorophenyl)piperazin-1-yl)acetamide] | –
25 | 39.6 ± 2.3 | 23.9 ± 1.7 | 36.8 ± 2.2 | – | CC(=O)N1N=C(c2ccc(NC(=O)CN3CCN(c4ccc(Cl)cc4)CC3)cc2)CC1c1ccco1 (stereo not shown) [5n, N-(4-(1-Acetyl-5-(furan-2-yl)-4,5-dihydro-1H-pyrazol-3-yl)phenyl)-2-(4-(4-chlorophenyl)piperazin-1-yl)acetamide] | –
26 | – | – | – | 5 | COc1cccc2c1C(=O)c1c(O)c3c(c(O)c1C2=O)C[C@@](O)(C(=O)CO)C[C@@H]3O[C@H]1C[C@H](N)[C@H](O)[C@H](C)O1 [Doxorubicin, reference compound] | –
27 | – | – | 11.5 ± 0.9 | 8 | CNC(=O)c1cc(Oc2ccc(NC(=O)Nc3ccc(Cl)c(C(F)(F)F)c3)cc2)ccn1 [Sorafenib, reference compound] | GI50 [5]: 7 µM

From paper PMC11951252 (RSC Advances, 2025)
